This note sets out measurements from article PMC7182277, “Characterizing Emerging Canine H3 Influenza Viruses” (PLoS Pathogens, 2020).

Structures can show the parent of a compound that is named as a salt.

One experiment deals with CIV-41915. The experiment can be described thus: microbe, parasite or virus in culture. Type of experiment: cell-based, canine H3N2 influenza A virus (A/canine/Illinois/41915/2015). The note with it: Influenza A virus, MDCK, in Canis lupus familiaris, read-out: Phenotypic assay (Mean IC50 ± SD).
Another experiment relates to rCIV-1177. Briefly: microbe, parasite or virus in culture. Type of experiment: cell-based. As to conditions: Influenza A virus, MDCK, in Canis lupus familiaris, read-out: Phenotypic assay (Mean IC50 ± SD).
The subject of the next experiment is Beth15. The experiment can be described thus: microbe, parasite or virus in culture. Type of experiment: cell-based, human H3N2 influenza A virus (A/Bethesda/55/2015).
A further experiment has as its target NA of rCIV-1177 (Influenza A virus, UniProt A0A2D0WZJ5). Type of experiment: biochemical. As to conditions: read-out: NA enzyme inhibition assay (Mean IC50 ± SD).
The target in a further experiment is NA of CIV-41915 (Influenza A virus, UniProt A0A0H3YBU9). Type of experiment: biochemical, canine H3N2 influenza A virus (A/canine/Illinois/41915/2015). The note with it: read-out: NA enzyme inhibition assay (Mean IC50 ± SD).
The next experiment deals with NA of Beth15 (Influenza A virus, UniProt A0A193ACB1). Type of experiment: biochemical, human H3N2 influenza A virus (A/Bethesda/55/2015). The note with it: read-out: NA enzyme inhibition assay (Mean IC50 ± SD).

Broadly, the IC50 is the concentration that gives 50% inhibition.

For the molecule `NC12CC3CC(CC(C3)C1)C2` [Amantadine, amantadine hydrochloride], the IC50 was 600 ± 100 nM in the experiment on CIV-41915; 300 ± 100 nM in the experiment with rCIV-1177; above 100000 nM in the experiment on Beth15 (Influenza A virus, MDCK, read-out: Phenotypic assay (Mean IC50 ± SD)). In addition, in the experiment on Beth15, the “Phenotypic assay (Mean IC50 ± SD)” value is recorded as “resistant”.
As for `CCC(CC)O[C@@H]1C=C(C(=O)O)C[C@H](N)[C@H]1NC(C)=O` [Oseltamivir carboxylate, oseltamivir carboxylate], the IC50 at NA of rCIV-1177 came out at 0.2 ± 0.01 nM; on NA of CIV-41915, 0.13 ± 0.01 nM.
As to `CCC(CC)[C@H](NC(C)=O)[C@@H]1[C@H](O)[C@@H](C(=O)O)C[C@H]1N=C(N)N` [Peramivir, peramivir], the figures for the IC50 at NA of rCIV-1177, on NA of Beth15 and on NA of CIV-41915 were 0.19 ± 0.02 nM, 0.12 ± 0.02 nM and 0.15 ± 0.02 nM, respectively.
